Source: patent US20210188856A1, “CRYSTAL FORM OF HYDROCHLORIDE OF PYRAZOLOHETEROARYL DERIVATIVE AND PREPARATION METHOD” (JIANGSU HENGRUI MEDICINE CO., LTD., priority 2018, published 2021)

Test: Influencing factors stability (heating, light illumination, high humidity; spread and uncovered, 20 days)
Assay type: physicochemical
Details: for Maximum single impurity / Purity / Total impurities: monohydrochloride; for stability under the influencing factor conditions (in words): light illumination
Description: Example 6: the crystal form I of the dihydrochloride salt of the compound represented by formula (I) (example 1) was spread and uncovered, and the steadily of the sample was evaluated under heating (40° C., 60° C.), light illumination (4500 Lux), and high humidity (RH 75%, RH 90%) with a period of 20 days.
(§1) Example 10: the crystal form A (example 7) of the monohydrochloride salt of the compound of formula (I) was spread and uncovered, and the stability of the sample was evaluated under heating (40° C., 60° C.), light illumination (4500 Lux), high humidity (RH 75%, RH 90%) conditions with a period of 20 days.
as §1, with “Example 11:” for “Example 10:”, “form B” for “form A (example 7)”, “compound represented by” for “compound of”, “(I) (example 8)” for “(I)”
as §1, with “Example 12:” for “Example 10:”, “form C” for “form A (example 7)”, “compound represented by” for “compound of”, “(I) (example 9)” for “(I)”

[1] = light illumination (4500 Lux), 4 days
[2] = light illumination (4500 Lux), 10 days
[3] = light illumination (4500 Lux), 20 days
[4] = 40° C., 60° C., 75% RH, 90% RH, 20 days

Compound: CCCCOc1nc(N)c2cnn(Cc3ccc(CN4CCCC4)cc3)c2n1.Cl [crystal form B, 6-butoxy-1-(4-(pyrrolidin-1-ylmethyl)benzyl)-1H-pyrazolo[3,4-d]pyrimidin-4-amine monohydrochloride]
- Maximum single impurity (0 day): 0.10%
- Purity (0 day): 99.54%
- Total impurities (0 day): 0.46%
- Maximum single impurity (40° C., 4 days): 0.19%
- Purity (40° C., 4 days): 99.31%
- Total impurities (40° C., 4 days): 0.69%
- Maximum single impurity (40° C., 10 days): 0.10%
- Purity (40° C., 10 days): 99.53%
- Total impurities (40° C., 10 days): 0.47%
- Maximum single impurity (40° C., 20 days): 0.14%
- Purity (40° C., 20 days): 99.39%
- Total impurities (40° C., 20 days): 0.61%
- Maximum single impurity (60° C., 4 days): 0.14%
- Purity (60° C., 4 days): 99.34%
- Total impurities (60° C., 4 days): 0.66%
- Maximum single impurity (60° C., 10 days): 0.10%
- Purity (60° C., 10 days): 99.42%
- Total impurities (60° C., 10 days): 0.58%
- Maximum single impurity (60° C., 20 days): 0.10%
- Purity (60° C., 20 days): 99.21%
- Total impurities (60° C., 20 days): 0.79%
- Maximum single impurity (75% RH, 4 days): 0.11%
- Purity (75% RH, 4 days): 99.54%
- Total impurities (75% RH, 4 days): 0.46%
- Maximum single impurity (75% RH, 10 days): 0.10%
- Purity (75% RH, 10 days): 99.61%
- Total impurities (75% RH, 10 days): 0.39%
- Maximum single impurity (75% RH, 20 days): 0.10%
- Purity (75% RH, 20 days): 99.57%
- Total impurities (75% RH, 20 days): 0.43%
- Maximum single impurity (90% RH, 4 days): 0.10%
- Purity (90% RH, 4 days): 99.54%
- Total impurities (90% RH, 4 days): 0.46%
- Maximum single impurity (90% RH, 10 days): 0.10%
- Purity (90% RH, 10 days): 99.61%
- Total impurities (90% RH, 10 days): 0.39%
- Maximum single impurity (90% RH, 20 days): 0.10%
- Purity (90% RH, 20 days): 99.59%
- Total impurities (90% RH, 20 days): 0.41%
- Maximum single impurity [1]: 0.10%
- Purity [1]: 99.51%
- Total impurities [1]: 0.49%
- Maximum single impurity [2]: 0.10%
- Purity [2]: 99.56%
- Total impurities [2]: 0.44%
- Maximum single impurity [3]: 0.11%
- Purity [3]: 99.45%
- Total impurities [3]: 0.55%
- stability under the influencing factor conditions (in words) [4]: good

Compound: CCCCOc1nc(N)c2cnn(Cc3ccc(CN4CCCC4)cc3)c2n1.Cl [crystal form C, 6-butoxy-1-(4-(pyrrolidin-1-ylmethyl)benzyl)-1H-pyrazolo[3,4-d]pyrimidin-4-amine monohydrochloride]
- Maximum single impurity (0 day): 0.10%
- Purity (0 day): 99.55%
- Total impurities (0 day): 0.45%
- Maximum single impurity (40° C., 4 days): 0.10%
- Purity (40° C., 4 days): 99.55%
- Total impurities (40° C., 4 days): 0.45%
- Maximum single impurity (40° C., 10 days): 0.10%
- Purity (40° C., 10 days): 99.60%
- Total impurities (40° C., 10 days): 0.40%
- Maximum single impurity (40° C., 20 days): 0.10%
- Purity (40° C., 20 days): 99.53%
- Total impurities (40° C., 20 days): 0.47%
- Maximum single impurity (60° C., 4 days): 0.10%
- Purity (60° C., 4 days): 99.50%
- Total impurities (60° C., 4 days): 0.50%
- Maximum single impurity (60° C., 10 days): 0.10%
- Purity (60° C., 10 days): 99.58%
- Total impurities (60° C., 10 days): 0.42%
- Maximum single impurity (60° C., 20 days): 0.13%
- Purity (60° C., 20 days): 99.42%
- Total impurities (60° C., 20 days): 0.58%
- Maximum single impurity (75% RH, 4 days): 0.11%
- Purity (75% RH, 4 days): 99.55%
- Total impurities (75% RH, 4 days): 0.45%
- Maximum single impurity (75% RH, 10 days): 0.09%
- Purity (75% RH, 10 days): 99.61%
- Total impurities (75% RH, 10 days): 0.39%
- Maximum single impurity (75% RH, 20 days): 0.10%
- Purity (75% RH, 20 days): 99.57%
- Total impurities (75% RH, 20 days): 0.43%
- Maximum single impurity (90% RH, 4 days): 0.11%
- Purity (90% RH, 4 days): 99.51%
- Total impurities (90% RH, 4 days): 0.49%
- Maximum single impurity (90% RH, 10 days): 0.10%
- Purity (90% RH, 10 days): 99.61%
- Total impurities (90% RH, 10 days): 0.39%
- Maximum single impurity (90% RH, 20 days): 0.10%
- Purity (90% RH, 20 days): 99.58%
- Total impurities (90% RH, 20 days): 0.42%
- Maximum single impurity [1]: 0.11%
- Purity [1]: 99.57%
- Total impurities [1]: 0.43%
- Maximum single impurity [2]: 0.09%
- Purity [2]: 99.64%
- Total impurities [2]: 0.36%
- Maximum single impurity [3]: 0.10%
- Purity [3]: 99.54%
- Total impurities [3]: 0.46%
- stability under the influencing factor conditions (in words) [4]: good

Compound: CCCCOc1nc(N)c2cnn(Cc3ccc(CN4CCCC4)cc3)c2n1.Cl [crystal form A, 6-butoxy-1-(4-(pyrrolidin-1-ylmethyl)benzyl)-1H-pyrazolo[3,4-d]pyrimidin-4-amine monohydrochloride]
- Maximum single impurity (0 day): 0.09%
- Purity (0 day): 99.74%
- Total impurities (0 day): 0.26%
- Maximum single impurity (40° C., 4 days): 0.09%
- Purity (40° C., 4 days): 99.72%
- Total impurities (40° C., 4 days): 0.28%
- Maximum single impurity (40° C., 10 days): 0.06%
- Purity (40° C., 10 days): 99.72%
- Total impurities (40° C., 10 days): 0.28%
- Maximum single impurity (40° C., 20 days): 0.06%
- Purity (40° C., 20 days): 99.70%
- Total impurities (40° C., 20 days): 0.30%
- Maximum single impurity (60° C., 4 days): 0.08%
- Purity (60° C., 4 days): 99.72%
- Total impurities (60° C., 4 days): 0.28%
- Maximum single impurity (60° C., 10 days): 0.06%
- Purity (60° C., 10 days): 99.75%
- Total impurities (60° C., 10 days): 0.25%
- Maximum single impurity (60° C., 20 days): 0.06%
- Purity (60° C., 20 days): 99.70%
- Total impurities (60° C., 20 days): 0.30%
- Maximum single impurity (75% RH, 4 days): 0.09%
- Purity (75% RH, 4 days): 99.72%
- Total impurities (75% RH, 4 days): 0.28%
- Maximum single impurity (75% RH, 10 days): 0.06%
- Purity (75% RH, 10 days): 99.74%
- Total impurities (75% RH, 10 days): 0.26%
- Maximum single impurity (75% RH, 20 days): 0.08%
- Purity (75% RH, 20 days): 99.68%
- Total impurities (75% RH, 20 days): 0.32%
- Maximum single impurity (90% RH, 4 days): 0.08%
- Purity (90% RH, 4 days): 99.72%
- Total impurities (90% RH, 4 days): 0.28%
- Maximum single impurity (90% RH, 10 days): 0.06%
- Purity (90% RH, 10 days): 99.76%
- Total impurities (90% RH, 10 days): 0.24%
- Maximum single impurity (90% RH, 20 days): 0.08%
- Purity (90% RH, 20 days): 99.72%
- Total impurities (90% RH, 20 days): 0.28%
- Maximum single impurity [1]: 0.09%
- Purity [1]: 99.70%
- Total impurities [1]: 0.30%
- Maximum single impurity [2]: 0.06%
- Purity [2]: 99.75%
- Total impurities [2]: 0.25%
- Maximum single impurity [3]: 0.08%
- Purity [3]: 99.63%
- Total impurities [3]: 0.37%
- stability under the influencing factor conditions (in words) [4]: good
